We go through 4 compounds from article PMC6471218, “Anti-Diabetic Activity of 2,3,6-Tribromo-4,5-Dihydroxybenzyl Derivatives from Symphyocladia latiuscula through PTP1B Downregulation and α-Glucosidase Inhibition” (Marine Drugs, 2019).

Where two headings read alike, the source gives them in different places.

For series [1], the system named is insulin-resistant HepG2 cells. Kind of series: 2-NBDG glucose uptake assay in insulin-resistant HepG2 cells. Type of series: cell-based, human. The conditions noted are these: 24 h; for Insulin-stimulated glucose uptake compared with rosiglitazone 10 µM (112%): 20 µM. The method, then:
Figure 8 Effect of bromophenols 1–3 on insulin-stimulated glucose uptake in insulin-resistant HepG2 cells. The glucose uptake assay was performed using the fluorescent D-glucose analogue 2-NBDG and 10^−6 mol/L insulin was to induce insulin resistance. Insulin-resistant HepG2 cells were treated with the indicated concentrations of test compounds or rosiglitazone for 24 h, and insulin-stimulated 2-NBDG uptake was measured. Values represent the mean ± standard deviation of triplicate experiments. ^a p < 0.01 indicates significant differences from the control group; ^b p < 0.05, ^c p < 0.01, and ^d p < 0.001 indicate significant differences from the insulin-resistant group.
(§1) HepG2 (human hepatocarcinoma) cells obtained from the American Type Culture Collection (HB-8065; Manassas, VA, USA) were maintained in 10% FBS MEM at 37 °C in a humidified atmosphere with 5% CO2. Cytotoxicity was evaluated using the MTT assay. Following previously described methods, an insulin-resistant HepG2 cell model was established. All other experimental conditions and procedures were similar to those reported in our previous paper.
The relative percent glucose uptake upon sample treatment in IR-HepG2 cells was evaluated by a flourimetric method using the fluorescent D-glucose analog 2-NBDG and measured on a fluorescence microplate reader (FL×800, Bio-Tek Instruments, Inc., Winooski, VT, USA) at 485 nm excitation and 528 nm emission wavelengths. Detailed experimental conditions and procedures are reported in our previous publication.

The target in a further series is α-glucosidase. More on the design: method as in ref 24, 34 (Kurihara et al.). The conditions noted are these: different enzyme and pNPG concentrations; 34 (Kurihara et al.); read-out: 50% α-glucosidase enzyme inhibition concentration (literature); cited from earlier work.
Series [2] has as its target T1, yeast α-glucosidase (Saccharomyces cerevisiae, UniProt P53341).
T1 construct: purchased Sigma-Aldrich Co. (St. Louis, MO, USA)
The experiment in a line: Kinetic study against α-glucosidase (Lineweaver–Burk and Dixon plots). The class given is biochemical. Particulars: for α-Glucosidase Inhibition Type: determined from Lineweaver–Burk plots. The method, then:
(§2) In competitive inhibition mode (Figure 2C), double reciprocal plots yielded a group of lines with the same y-intercept (constant Vmax) but different x-intercepts (varying Km values). […] The double reciprocal plots of α-glucosidase enzyme inhibition by 3 yielded a group of lines intersecting at a single point in the second quadrant.
(§3) The modes of enzyme inhibition were evaluated by monitoring the effects of different concentrations of the substrates (1, 2, or 4 mM pNPP for PTP1B and 1.25, 2.5, or 5 mM pNPG for α-glucosidase) on Dixon plots (single reciprocal plots). […] The enzymatic procedure consisted of the same aforementioned assay method. The inhibition constants (Ki) were determined by interpreting Dixon plots, where the value of the x-intercept indicated the value of −Ki.

Series [3] has as its target T2, Human recombinant protein tyrosine phosphatase (PTP1B) (Homo sapiens, UniProt P18031).
T2 sequence (P18031 1-435): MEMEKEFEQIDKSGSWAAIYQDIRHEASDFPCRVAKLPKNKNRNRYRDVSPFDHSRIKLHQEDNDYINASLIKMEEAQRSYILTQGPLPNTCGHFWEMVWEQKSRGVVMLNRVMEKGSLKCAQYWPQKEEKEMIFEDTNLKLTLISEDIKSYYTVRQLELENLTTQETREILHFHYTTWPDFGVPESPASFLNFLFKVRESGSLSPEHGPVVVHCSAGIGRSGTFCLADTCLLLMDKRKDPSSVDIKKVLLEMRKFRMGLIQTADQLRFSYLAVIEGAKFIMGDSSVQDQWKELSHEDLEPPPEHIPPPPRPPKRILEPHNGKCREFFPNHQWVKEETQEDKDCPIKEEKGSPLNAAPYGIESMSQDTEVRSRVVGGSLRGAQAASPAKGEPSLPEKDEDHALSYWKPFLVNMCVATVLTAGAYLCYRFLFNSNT
Kind of series: PTP1B inhibitory assay with pNPP substrate. Type of series: biochemical. From the text:
(§4) The initial step in evaluating anti-diabetic secondary metabolites from Symphyocladia latiuscula was the evaluation of PTP1B and α-glucosidase inhibition potentials of methanol extract and fractions obtained by MeOH extract partition with different solvents using pNPP and pNPG as substrates, respectively. Enzyme inhibition levels are expressed as mean IC50 values with standard deviation.
(§5) Human recombinant protein tyrosine phosphatase (PTP1B) was purchased from Biomol International LP (Plymouth Meeting, PA, USA). Fetal bovine serum (FBS), minimum essential medium (MEM), sodium pyruvate, penicillin-streptomycin, and nonessential amino acids were purchased from Gibco-BRL Life Technologies (Grand Island, NY, USA). The fluorescent D-glucose analogue and 2-NBDG was purchased from Life Technologies (Carlsbad, CA, USA). Human insulin was purchased from Eli Lilly (Fegersheim, France). All other chemicals and solvents used were of reagent grade and acquired from commercial sources.
The potential for MeOH extract, solvent-soluble fractions, and isolated compounds to inhibit PTP1B enzyme activity was evaluated using the pNPP substrate. Experimental conditions and laboratory procedures were similar to those published in our previous report.

Series [4] has as its target T1, yeast α-glucosidase. The experiment in a line: biochemical. The conditions noted are these: for Enhancement of α-glucosidase inhibitory activity compared to 2: ratio of IC50 values. Type of series: biochemical.
Source text: as §4, §5
The α-glucosidase inhibition assay procedure, previously reported by Li et al., was followed to measure the release of […] at 405 nm using a microplate spectrophotometer (Molecular Devices).

The target in series [5] is T2, Human recombinant protein tyrosine phosphatase (PTP1B). Kind of series: Kinetic study against PTP1B (Lineweaver–Burk and Dixon plots). Type of series: biochemical. Particulars: for PTP1B Inhibition Type: determined from Lineweaver–Burk plots. The method, then: as §2, §3
A further series concerns HepG2 cells. The experiment in a line: MTT cytotoxicity assay in HepG2 cells. The conditions noted are these: 25, 50 and 100 μM, 24 h. Type of series: cell-based, human. Here is the method:
Cytotoxicity of bromophenols on HepG2 cells was evaluated using a 3-(4,5-dimethylthiazol-2-yl)-2,5-diphenyl tetrazolium bromide (MTT) assay. […] So, considering enzyme inhibition activity and toxicity in HepG2 cells, we performed cell-based experiments at 5, 10, and 20 µM concentrations.
Figure 7 Effect of bromophenols 1–3 on cell viability in HepG2 cells. Cell viability was determined using the 3-(4,5-dimethylthiazol-2-yl)-2,5-diphenyl tetrazolium bromide (MTT) method. Cells were pretreated with the indicated concentrations (25, 50, and 100 μM) of test compounds for 24 h. Data shown represent mean ± standard deviation of triplicate experiments. ^a p < 0.05 indicates significant differences from the control group.
as §1
Background: Tetrazolium assays rely on reduction of a dye to a coloured formazan, in cell work by metabolically active cells.

In another series the test system is PTP1B. More on the design: method as in ref 35 (Liu et al.). The conditions noted are these: ref 35 (Liu et al.); read-out: PTP1B IC50 (literature); cited from earlier work.
Series [6] relates to PTP1B expression in insulin-resistant HepG2 cells. Kind of series: PTP1B expression level in insulin-resistant HepG2 cells (western blot). Type of series: cell-based, human. The conditions noted are these: 24 h treatment, then 100 nM insulin 30 min. Here is the method:
Figure 9 Effects of bromophenol 1 (A), 2 (B), and 3 (C) on protein tyrosine phosphatase 1B (PTP1B) expression levels in insulin-resistant HepG2 cells. Western blotting was performed and protein band intensities were quantified by densitometric analysis. Upper panels display representative blots. Equal protein loading was ensured and normalized against β-actin levels. Values represent the mean ± standard deviation of three independent experiments; ^a p < 0.001 indicates significant differences from the control group; ^b p < 0.05, ^c p < 0.01, and ^d p < 0.001 indicate significant differences from the insulin-resistant group.
Insulin-resistant HepG2 cells were exposed to a range of concentrations of 1–3 or rosiglitazone (10 μM) in 24-well plates for 24 h followed by stimulation with 100 nM insulin diluted in SFMEM for 30 min. Cells were then washed twice with ice cold PBS, collected, and lysed with sample buffer. Protein was quantified by the modified Bradford protein assay kit using bovine serum albumin (BSA) as a standard, electrophoresed on sodium dodecyl sulfate-polyacrylamide gels (Bio-Rad, Hercules, CA, USA), and then transferred to polyvinylidene difluoride (PVDF) membranes (Immobilon-P; Millipore, Burlington, MA, USA) using the Pierce G2 Fast Blotter (Thermo Fisher Scientific Inc, USA) at 100 V for 60 min in a standard semi-dry system. […]

T1 sequence (P53341 whole entry): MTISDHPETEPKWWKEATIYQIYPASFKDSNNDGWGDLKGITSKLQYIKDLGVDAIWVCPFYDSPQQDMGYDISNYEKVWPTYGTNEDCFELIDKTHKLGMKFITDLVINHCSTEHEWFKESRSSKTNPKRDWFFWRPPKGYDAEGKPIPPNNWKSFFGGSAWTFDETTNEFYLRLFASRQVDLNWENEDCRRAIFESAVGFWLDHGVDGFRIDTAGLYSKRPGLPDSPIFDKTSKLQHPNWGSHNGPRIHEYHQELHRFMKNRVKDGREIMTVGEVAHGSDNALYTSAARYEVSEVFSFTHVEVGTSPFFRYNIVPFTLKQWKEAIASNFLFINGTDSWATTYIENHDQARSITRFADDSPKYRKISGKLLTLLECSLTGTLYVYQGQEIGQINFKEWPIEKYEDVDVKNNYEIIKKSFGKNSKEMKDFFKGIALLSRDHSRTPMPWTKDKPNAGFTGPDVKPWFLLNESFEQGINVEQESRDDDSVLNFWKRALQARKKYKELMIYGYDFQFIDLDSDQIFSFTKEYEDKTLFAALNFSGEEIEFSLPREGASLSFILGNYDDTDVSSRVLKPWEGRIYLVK

One may read the Ki as the equilibrium dissociation constant of an inhibitor or competing ligand from its target. As to `OCc1c(Br)c(O)c(O)c(Br)c1Br` [Compound 1, 2,3,6-Tribromo-4,5-dihydroxybenzyl alcohol], the “Insulin-stimulated glucose uptake compared with rosiglitazone 10 µM (112%)” value in series [1] is on record as “comparable”. The IC50 on α-glucosidase was 11000 nM; in series [3] it was 7740 ± 140 nM; against yeast α-glucosidase [4], 2630 ± 110 nM. The results for the Ki (on yeast α-glucosidase [2]; in [5]) were 1920 nM and 1190 nM, respectively. The “α-Glucosidase Inhibition Type” value at yeast α-glucosidase [2] is “Noncompetitive”. Further, on yeast α-glucosidase [4], the “Enhancement of α-glucosidase inhibitory activity compared to 2” value was 2.5 fold. Moreover, in series [5], the “PTP1B Inhibition Type” value is listed as “Mixed-type”. Besides, the “Cytotoxicity (cell viability, MTT) in HepG2 cells” value with HepG2 cells was “slightly toxic effect at 100 μM”.
As for `COCc1c(Br)c(O)c(O)c(Br)c1Br` [Compound 2, 2,3,6-Tribromo-4,5-dihydroxybenzyl methyl ether], the “Insulin-stimulated glucose uptake compared with rosiglitazone 10 µM (112%)” value in series [1] is “comparable”. Besides, the values for the Ki (at yeast α-glucosidase [2]; in series [5]) were 5540 nM and 2400 nM, respectively. The “α-Glucosidase Inhibition Type” value on yeast α-glucosidase [2] was “Noncompetitive”. The values for the IC50 (in series [3]; at yeast α-glucosidase [4]; in the series on PTP1B) were 8500 ± 450 nM, 7240 ± 20 nM and 3900 nM, respectively. For the same compound, the “PTP1B Inhibition Type” value in series [5] was “Mixed-type”. For the same compound, the “Cytotoxicity (cell viability, MTT) in HepG2 cells” value in the series with HepG2 cells was “did not show toxicity until they were used at a concentration of 100 μM”.
As for `Oc1c(O)c(Br)c(COCc2c(Br)c(O)c(O)c(Br)c2Br)c(Br)c1Br` [Compound 3, Bis-(2,3,6-tribromo-4,5-dihydroxybenzylmethyl ether)], in [1] (10 µM), the “Insulin-stimulated glucose uptake compared with rosiglitazone 10 µM” value is “greater effect than rosiglitazone”. Besides, the IC50 on α-glucosidase is 30 nM; in series [3] (mean ± SD, n = 3, read-out: PTP1B IC50) it was 5290 ± 80 nM; at yeast α-glucosidase [4] (mean ± SD, n = 3, read-out: α-Glucosidase IC50), 1920 ± 20 nM. In addition, the Ki came out at 210 nM on yeast α-glucosidase [2] (determined from Dixon plots, read-out: α-Glucosidase Ki) and 2250 nM in series [5] (determined from Dixon plots, read-out: PTP1B Ki). The “α-Glucosidase Inhibition Type” value on yeast α-glucosidase [2] is “Mixed-type”. Moreover, at yeast α-glucosidase [4], the “Enhancement of α-glucosidase inhibitory activity compared to 2” value turned out to be 3.8 fold. For the same compound, the “Effect on PTP1B expression level” value in series [6] is on record as “excellent ability to reduce PTP1B expression level”. In addition, the “PTP1B Inhibition Type” value in series [5] is “Competitive”.
Consider `CN(CCOc1ccc(CC2SC(=O)NC2=O)cc1)c1ccccn1` (stereo not drawn) [Rosiglitazone, rosiglitazone, reference compound], for which, in [1] (10 µM, relative to normal control), the “Insulin-stimulated glucose uptake (2-NBDG)” value is reported as 112%.
